Measured values reported in the METLIN SMRT retention time set (Domingo-Almenara et al. 2019).

Test: gradient 5% acetonitrile 3 min, to 50% in 2 min, to 85% in 15 min, held 3 min, 100 µL/min
Conditions: column: Zorbax Extend-C18 2.1 x 50 mm; eluents: water / acetonitrile, 0.1% formic acid
In short: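 Pure standards were run in mixtures of ~100 molecules by HPLC coupled to a quadrupole time-of-flight mass spectrometer. The column was a Zorbax Extend-C18 (2.1 × 50 mm, 1.8 μm) at 100 μL/min, with water and acetonitrile each containing 0.1% formic acid, in positive and negative ionization mode. Dead and dwell volumes were 40 μL and 900 μL. Retention time was taken from computationally picked adduct peaks, each manually inspected, with data collected over 3 months.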

Row | SMILES | RP-LC retention time [s]
1 | CN1CC[C@H](c2c(O)cc(O)c3c(=O)cc(-c4ccccc4Cl)oc23)[C@H](O)C1 | 689
2 | CCC(=O)N1CCCCCCN(C)C(=O)[C@@H]2CCC[C@@H]21 | 726
3 | Cc1cc(C)cc(NC(=O)Cn2c(N3CCC(C)CC3)nc(C)cc2=O)c1 | 796
4 | CC(C)NC(=O)CN1CCN(c2ncc(C(=O)NCc3ccccc3)c(N)n2)CC1 | 593
5 | CN(C(=O)CN(Cc1ccc(Cl)cc1)S(=O)(=O)c1cccnc1)c1ccccc1 | 917
6 | CC(C)CCN(Cc1ccco1)C(=O)Cn1nc2n(c1=O)CCC(N)CC2 (centres undefined) | 633
7 | Clc1cccc(-c2noc3ncnc(N4CCN(c5ccccn5)CC4)c23)c1 | 716
8 | O=C(CCc1c(-c2ccc(F)cc2)nc2ccccn12)Nc1cccc(Cl)c1 | 730
9 | O=S(=O)(Cc1ccccc1)N1CCC(c2nc(C3CC3)no2)C1 (centres undefined) | 875
10 | CC(C)N1CCn2c(nc3cc(C(=O)NCc4ccc5c(c4)OCO5)ccc32)C1=O | 680
11 | O=C(NCc1ccc(F)cc1)C1CCCN(c2nc3ccccc3n(Cc3ccccc3)c2=O)C1 (centres undefined) | 1140
12 | CCCNC(=O)c1cc2sc(CC)cc2n1C | 951
13 | Cc1ccc(NC(=O)N2CCC(n3c(-c4ccoc4)nc4cccnc43)C2)cc1C (centres undefined) | 762
14 | O=C(Nc1ccc2c(c1)OCO2)Nc1ccc2c(c1)N(C(=O)c1ccccc1)CC2 | 882
15 | Cc1ccn2cc(-c3ccc(NC(=O)c4cc(Br)ccc4Cl)cc3)nc2n1 | 700
16 | Cc1ccc(-c2ncccc2CNS(=O)(=O)c2ccc(F)cc2)cc1 | 707
17 | CCCN1CCn2cc(S(=O)(=O)Nc3cc(OC)cc(OC)c3)cc2C1=O | 744
18 | O=C(Nc1ncc([N+](=O)[O-])s1)c1ccc([N+](=O)[O-])c(Cl)c1 | 946
19 | CC(=O)Nc1ccc(-c2noc(C3CCCN(C(=O)c4ccsc4)C3)n2)cc1 (centres undefined) | 766
20 | Cc1ccc(C(=O)Nc2ccc3c(c2)Sc2ncccc2C(=O)N3C(C)C)c(C)c1 | 962
21 | Cc1sc2cc(C(=O)N3CCN(c4ccccc4)CC3)[nH]c2c1CN1CCOCC1 | 710
22 | Cc1cc(F)ccc1NC(=O)C1CC(=O)N(c2ccc3c(c2)CCN3C(=O)C2CC2)C1 (centres undefined) | 758

Row | SMILES | RP-LC retention time [s]
23 | Cc1ccc2nc(CCNC(=O)Cn3nc(C(=O)N4CCCC4)c4ccccc43)[nH]c2c1 | 613
24 | CCCc1nc(-c2c(C)cc(C)nc2NC(=O)c2cc(F)cc(F)c2)no1 | 938
25 | O=C(Nc1cc(F)ccc1F)C1CCN(C(=O)c2cccn2-c2cccnc2)CC1 | 728
26 | CNC(=O)c1c(NC(=O)COc2ccc(Cl)cc2)sc2c1CCC2 | 1100
27 | CC(=O)N1CCc2cc(N3CC(C(=O)NCc4ccccc4Cl)CC3=O)ccc21 (centres undefined) | 708
28 | O=C(CCn1nnc2cc(-c3noc(C4(c5ccccc5)CC4)n3)ccc21)N1CCCC1 | 958
29 | O=C(Nc1ccc(CCc2nc3ccccc3n2-c2ccccc2)cc1)c1cnccn1 | 694
30 | O=C(NCC(c1ccco1)N1CCOCC1)c1cc(-c2ccc3c(c2)CCCC3)on1 (centres undefined) | 827
31 | Cc1ccc(N(C)C(=O)C2CCCN(c3ncnc4c3nc3n4CCCCC3)C2)cc1C (centres undefined) | 897
32 | Cc1cccc(S(=O)(=O)N2CCN(c3cc(C)nc(NC4CCCCC4)n3)CC2)c1 | 860
33 | CCOc1ccc(-c2nc(Cc3noc(-c4ccccn4)n3)c(C)o2)cc1 | 966
34 | CN1CCN(c2ccc(-c3nc(-c4cccc(F)c4)no3)cn2)CC1 | 685
35 | CCOC(=O)Cn1c(C2CC(=O)N(c3cccc(SC)c3)C2)nc2ccccc21 (centres undefined) | 852
36 | Cc1ccnc(NS(=O)(=O)c2ccc(NC(=O)c3ccc4ncsc4c3)cc2)n1 | 626
37 | COc1ccc2nc(NC3=NCN(CCc4ccc(OC)c(OC)c4)CN3)nc(C)c2c1 | 709
38 | CC(=O)Nc1ccc(-c2noc(C3CCCN(C(=O)c4ccoc4)C3)n2)cc1 (centres undefined) | 731
39 | O=C(Cn1cccc(-c2nc(-c3ccccc3)no2)c1=O)Nc1ccc(F)cc1F | 864
40 | Cc1oc(C2CCN(C(=O)Cc3cccs3)CC2)nc1C(=O)N1CCSCC1 | 742
41 | CCCS(=O)(=O)N1CC[C@@H]2CN(Cc3ccccc3)[C@@H]2C1 | 607
42 | Cc1cc2c(=O)n(CC(=O)NCc3ccc(Cl)cc3)c3cccnc3n2n1 | 714
43 | CCCNC(=O)C1CCN(c2ccc(SCC(=O)NCc3ccc(F)cc3)nn2)CC1 | 667
44 | CCC(=O)Nc1ccc(CCc2nc3ccc(C(=O)NC4CCCCC4)cc3[nH]2)cc1 | 647
